Experimental data as given in patent US20160206674A1, “FRUIT EXTRACTS AND EXTRACT FORMULATIONS OF CANARIUM ODONTOPHYLLUM AS ACTIVES AND RELATED INVENTION EMBODIMENTS” (BIOTROPICS MALAYSIA BHD, priority 2013, published 2016).

Key:
human recombinant PDE5A = biological target: T1, human recombinant PDE5A (Homo sapiens, UniProt O76074); test: AlphaScreen cGMP PDE assay, PDE5; format: biochemical; conditions: n = 3
T1 construct: GST (N); purchased BPS Bioscience 60050
Experimental: (§1) Phosphodiesterase inhibitory activity of the test items prepared according to the procedure in example 2 and outlined in table 2 were measured using the AlphaScreen® assay technology. Materials and methods were according to technical instructions given by Perkin Elmer (www.perkinelmer.com; “Application note “AlphaScreen cGMP Phosphodiesterase Assay Using AlphaScreen cGMP Supplement with Anti-cGMP Antibody”; Authors: Martin Boissonneault, Christian Fafard, Joe Trometer, Chantal Illy, Stéphane Parent, and Roger Bossé; PerkinElmer Life and Analytical Sciences, 710 Bridgeport Avenue, Shelton, Conn. 06484 USA).
(§2) The AlphaScreen cGMP PDE assay used PerkinElmer's AlphaScreen cGMP supplement with antibody (cat. no. 6760308M or 6760308R) which consists of a biotinylated cGMP derivative and an anti-cGMP antibody. The assay also requires the AlphaScreen Protein A detection kit (PerkinElmer cat. no. 6760617), composed of Protein A acceptor beads and Streptavidin donor beads. The human recombinant PDE5A (N-terminal GST, cat no 60050) and PDE2A1 (N-terminal FLAG tag, cat no 0021) were purchased from BPS Bioscience, San Diego, United States. […]
(§3) 1—Add 5 μL of inhibitor* * Please note that for compound screening purposes, adding […] of test compounds to 4.5 μL of cGMP substrate solution prepared in the PDE reaction Buffer is recommended. […] 2—Add 5 μL of PDE (5U per well) 3—Incubate 120 minutes at 23° C. for enzymatic cleavage of unlabeled cGMP 4—Add 5 μL of the AlphaScreen cGMP Supplement (1 nM final) 5—Add 10 μL Detection mix (anti-cGMP antibody/Streptavidin-Donor beads (20 μg/mL final)/Protein A-Acceptor beads (20 μg/mL final)) 6—Incubate the plate for 1 hour at room temperature in the dark and detect the AlphaScreen signal using the microplate analyzer PHERAstar reader.

human recombinant PDE2A1 = biological target: T2, human recombinant PDE2A1 (Homo sapiens, UniProt O00408); test: AlphaScreen cGMP PDE assay, PDE2; format: biochemical; conditions: n = 3
T2 construct: FLAG (N); purchased BPS Bioscience 0021
T2 sequence (O00408 1-920 isoform O00408-2): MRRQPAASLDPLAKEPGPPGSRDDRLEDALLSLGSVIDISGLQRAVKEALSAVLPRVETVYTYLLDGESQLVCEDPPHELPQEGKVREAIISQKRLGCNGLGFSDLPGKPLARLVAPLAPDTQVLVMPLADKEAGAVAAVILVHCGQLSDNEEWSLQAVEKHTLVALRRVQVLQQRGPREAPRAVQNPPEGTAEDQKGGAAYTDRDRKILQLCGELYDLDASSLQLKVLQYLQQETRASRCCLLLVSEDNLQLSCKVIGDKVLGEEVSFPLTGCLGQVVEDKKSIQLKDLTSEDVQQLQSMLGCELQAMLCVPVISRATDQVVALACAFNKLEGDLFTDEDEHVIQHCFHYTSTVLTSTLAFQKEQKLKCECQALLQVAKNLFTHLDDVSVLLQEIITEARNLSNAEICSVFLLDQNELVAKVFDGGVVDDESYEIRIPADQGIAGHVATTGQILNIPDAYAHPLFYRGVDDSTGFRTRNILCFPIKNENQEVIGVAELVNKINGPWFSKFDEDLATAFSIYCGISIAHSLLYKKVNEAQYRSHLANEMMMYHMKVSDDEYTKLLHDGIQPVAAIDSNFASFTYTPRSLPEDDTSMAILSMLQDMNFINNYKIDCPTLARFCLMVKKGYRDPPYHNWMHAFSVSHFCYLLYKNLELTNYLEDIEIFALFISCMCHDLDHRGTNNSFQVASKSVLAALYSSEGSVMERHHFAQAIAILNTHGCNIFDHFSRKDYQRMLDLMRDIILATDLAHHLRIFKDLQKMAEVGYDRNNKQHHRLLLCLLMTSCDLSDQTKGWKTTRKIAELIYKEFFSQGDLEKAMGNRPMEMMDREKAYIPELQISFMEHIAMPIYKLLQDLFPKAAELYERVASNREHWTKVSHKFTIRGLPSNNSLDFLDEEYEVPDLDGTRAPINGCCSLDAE
Experimental: as §1, §2, §3

| inhibition at 1 µM (human recombinant PDE5A; reference at 1 μM) | inhibition at 5 µM (human recombinant PDE5A; reference at 5 μM) | inhibition at 19 µM (human recombinant PDE5A; reference at 19 μM) | % inhibition of PDE-2 (human recombinant PDE2A1; Reference at 10 μM) | % inhibition of PDE-2 (human recombinant PDE2A1; reference at 1 μM) | % inhibition of PDE-2 (human recombinant PDE2A1; reference at 5 μM) | Compound |
| --- | --- | --- | --- | --- | --- | --- |
| 57% | 81% | 88% | – | – | – | CCCOc1ccccc1-c1nc2nn[nH]c2c(=O)[nH]1 [Zaprinast] |
| – | – | – | 98% | 33% | 73% | CCCCCCC(C(C)O)n1cnc2c(N)ncnc21.Cl (stereo not drawn) [EHNA] |
